From US9957214B2, “Multifunctional radical quenchers” (ARIZONA BOARD OF REGENTS ON BEHALF OF ARIZONA STATE …, priority 2012, dated 2018)
Read-outs that look alike come from different tables or passages of the source.

How the values were obtained:
[1] = molecular target: bovine heart mitochondrial complex I (Bos taurus, UniProt P03887+P17694+P42026); assay: Complex I (NADH-Q1 oxidoreductase) inhibition in submitochondrial particles; assay type: biochemical
FRDA lymphocytes = assay: Suppression of lipid peroxidation (C11-BODIPY581/591, FACS) in FRDA lymphocytes treated with diethyl maleate; assay type: cell-based; conditions: DEM; for inhibition at 1 µM / inhibition at 5 µM / inhibition at 10 µM: Lymphocyte, read-out: Scavenging activity (%), suppression of lipid peroxidation
Source text: Several methods for assaying lipid peroxidation in vitro have been developed (Kuypers et al. (1987) Biochim Biophys Acta. 25, 266-274; Pap et al. (1999) FEBS Lett. 453, 278-282; Drummen et al. (2002) Free RadicBiol Med. 33, 473-490). Almost all of these methods are based on inhibition of free radical-induced oxidation reactions. A widely used fluorescence assay for lipid peroxidation uses lipid soluble cis-parinaric acid as a probe. cis-parinaric acid loses its fluorescence (λexc/em: 320/432 nm) upon interaction with peroxyl radicals and retains its fluorescence in the presence of radical quenchers. cis-parinaric acid is, however, air sensitive, photolabile and absorbs light in the UV region of the spectrum (at ˜320 nm). […] In practical terms, the results obtained using cis-parinaric as a probe for lipid peroxidation are confounded due to the overlapping of the compounds emission spectra with the cis-parinaric emission spectrum. C11-BODIPY^581/591 Oxidation to Measure Lipid Peroxidation To overcome the problem of spectral overlap using cis-parinaric acid, a fluorescence assay for lipid peroxidation using a lipophilic probe belonging to the BODIPY class of fluorescent dyes was used C11-BODIPY^581/591 (4,4-difluoro-5(4-phenyl-1,3-butadienyl)-4-bora-3a, 4a-diaza-s-indacene-3-propionic acid) fluorescent shifts from red to green upon oxidation. C11-BODIPY^581/591 (Molecular Probes, Eugene, Oreg., USA) stock solution concentrations were determined by measuring the absorption of C11-BODIPY^581/591 at 582 nm using a molar extinction coefficient of 140,000 mol^−1 cm^−1 (R. P. Haugland, (1999) Handbook of Fluorescent Probes and Research Chemicals, Molecular Probes, Inc., Eugene, Oreg.). The lipid peroxidation inducer 2,2′-Azobis (2-amidino-propane dihydrochloride) (AAPH) and the antioxidant compound α-tocopherol (α-TOH) were obtained from Sigma (St. Louis, Mo., USA). Phospholipid bilayers were prepared from 1-stearoyl-2-oleoyl-phosphatidylcholine (SOPC) and 1,2-dilinoleoyl-phosphatidylcholine (DLPC) and were purchased from Avanti® polar lipids, Inc., (Alabaster, Ala., USA). Preparation of Liposomes Phosphotidylcholine (PC) liposomes were prepared as described before (Guey-Shuang et al. (1982) Lipids. 17, 403-413). Briefly, DLPC (25 mg) were dissolved in chloroform and the solvent was removed by nitrogen evaporation (˜2 hours) to give a thin film of PC in a round bottom flask. The lipid film was hydrated with 50 mL of 10 mM Tris-HCl (pH 7.4), 100 mM KCl, shaken and sonicated for 15 seconds. The liposomes obtained were filtered several times through […] membrane filter. Measurement of C11-BODIPY^581/591 Oxidation C11-BODIPY^581/591 was incorporated into liposomes and oxidized by peroxyl radicals derived from the decomposition of AAPH in the presence and absence of compounds. Liposomes (1 mg/mL), suspended in 10 mM Tris-HCl (pH 7.4), 100 mM KCl, were transferred to a quartz 1 mL cuvette and placed in a Varian Cary Eclipse fluorometer (Varian, Cary, N.C.) equipped with a thermostatted cuvette holder at 40° C. Liposomes were pre-incubated for 10 min with 200 nM C11-BODIPY^581/591 to allow their incorporation into the lipid phase of the liposomes. After the addition of AAPH (10 mM) the decay of the red fluorescence was followed at λ exc=570 nm, λ em=600 nm. Relative fluorescence units were normalized to 100% intensity. Results obtained were verified by repeating experiments N=3 independent experiments. Measurement of C11-BODIPY^581/591 Oxidation in Cell Culture A quantitative FACS analysis of lipid peroxidation of FRDA lymphocytes, which had been treated with diethyl maleate following incubation in the presence and absence of the test compounds, was measured as described (Khdour et al. (2011) Pharmaceut. Res. 28, 2896-2909). Briefly, FRDA lymphocytes (5×10^5 cell/mL) were treated with the test compounds at final concentrations of 5 and 10 μM and incubated at 37° C. for 16 h in a humidified atmosphere containing 5% CO2 in air. […]

[2] = tested on: Friedreich's ataxia lymphoblast cell line GM15850; assay: Cytoprotection (trypan blue exclusion assay) of DEM-treated FRDA lymphocytes; assay type: cell-based; conditions: DEM alone 18 ± 10% viability; for viability at 0.1 µM / viability at 0.5 µM / viability at 2.5 µM / viability at 5 µM: Homo sapiens, GM15850, read-out: Cytoprotection (cell viability, % of untreated control)
Protocol: Cell viability was determined by trypan blue exclusion assay in Friedreich's ataxia lymphoblast cell line GM15850 (Coriell Institute, New Jersey). This technique was used to assess the cytoprotective effects of the tested compounds in cultured cells treated with DEM to induce cell death by GSH depletion. The viability of DEM-treated FRDA cells was determined by their ability to exclude the dye trypan blue. Viable cells exclude trypan blue, whereas non-viable cells take up the dye and stain blue. Briefly, FRDA lymphocytes were grown in RPMI 1640 medium (Gibco) supplemented with 15% fetal calf serum, 2 mM glutamine (HyClone) and 1% penicillin-streptomycin mix (Cellgro). Cells were seeded at a density of 5×10^5 cells/mL and treated with different concentrations of the indicated compounds. Cells were incubated at 37° C. in a humidified atmosphere of 5% CO2 in air for 17 h. After pre-incubation, the cells were treated with 5 mM DEM. Cell viability was determined by staining cells with 0.4% trypan blue using a hemacytometer. At least 500 cells were counted in each experimental group. At the time of assay, <20% of DEM treated cells were viable (trypan blue negative), whereas in non DEM-treated control, >90% cells were viable. Cell viability was expressed as the percentage of control. Data are expressed as means±S.E.M. (n=3).
Cell viability was determined by trypan blue exclusion assay in Friedreich's ataxia lymphoblast cell line GM15850 (Coriell Institute). This technique was used to assess the cytoprotective effects of the compounds in cultured cells treated with diethyl maleate (DEM) to induce cell death by glutathione (GSH) depletion. The viability of DEM-treated FRDA cells was determined by their ability to exclude the dye trypan blue. Viable cells exclude trypan blue, whereas non-viable cells take up the dye and stain blue. […] Benzoquinone analogue 9 afforded greater cyoprotection to FRDA lymphocytes at 5 μM concentration than did the tert-butyl ester 6 (74 vs 50%).

[3] = tested on: NADH oxidase (complexes I, III and IV); assay: NADH oxidase activity (complexes I, III and IV) in submitochondrial particles; assay type: biochemical, bovine
CEM leukemia cells = assay: Suppression of ROS production (DCFH-DA flow cytometry) in DEM-treated CEM leukemia cells; assay type: cell-based; conditions: 5 μM; CEM leukemia cells pretreated with DEM
Protocol: FIG. 1. Flow cytometric analysis of CEM leukemia lymphocytes (gray bars) and FRDA lymphocytes (black bars) stained with dichlorodihydrofluorescein diacetate (DCFH-DA) for 20 min, following pretreatment with the test compounds at 5 μM concentration for 16 h, and subsequent treatment with diethyl maleate (DEM) for 60 or 80 min to induce the production of ROS in CEM and FRDA lymphocytes, respectively. Data shown represent the mean±SEM of two different experiments run as duplicates.
Intracellular ROS production was measured in FRDA lymphocyte cells (GM15850, Coriell Cell Repositories, Camden, N.J.) using the oxidant sensitive fluorescent probe 2,7-dichlorodihydrofluorescein diacetate (DCFH-DA) (Molecular Probes) as described previously (Khdour et al. (2011) Pharm. Res. 28, 2896-2909). One mL of FRDA lymphocyte cells or leukemic CEM cells (5×10^5 cells) were plated in a 24-well plate, treated with the test compounds and incubated at 37° C. for 16 h in a humidified atmosphere containing 5% CO2 in air. Cells were treated with 5 mM diethyl maleate (DEM) for 80 min or 60 min respectively, collected by centrifugation at 300×g for 3 min and then washed with phosphate buffered saline (PBS) (Life Technologies). Cells were resuspended in PBS containing 20 mM glucose and incubated at 37° C. in the dark for […] with 10 μM DCFH-DA. Cells were collected by centrifugation at 300×g for 3 min and then washed with PBS. The samples were analyzed immediately by flow cytometry (C6 Accuri, BD Biosciences, San Jose, Calif.), using a 488 nm excitation laser and the FL1-H channel 530±15 nm emission filter. The generation of ROS, mainly peroxides, was detected as a result of the oxidation of DCFH. In each analysis, 10,000 events were recorded after cell debris was electronically gated out. Results obtained were verified by running duplicates and repeating experiments in three independent runs. Results were expressed as percentage of ROS scavenging activity.
The ability of the synthesized analogues to quench ROS and lipid peroxidation was evaluated in FRDA lymphocytes or leukemic CEM cells. These cells were placed under oxidative stress by depleting them of glutathione (GSH) using diethyl maleate (DEM). Depletion of glutathione by treatment FRDA lymphocytes or leukemic CEM cells with DEM has been used to induce oxidative stress in cellular systems by generation of ROS. Intracellular ROS production was measured using the oxidant sensitive fluorescent probe 2,7-dichlorodihydrofluorescein diacetate (DCFH-DA) (Molecular Probes).

[4] = submitochondrial particles, 30° C.; read-out: Complex I inhibition IC50
[5] = submitochondrial particles, 30° C.; read-out: Complex I inhibition Imax

bovine heart mitochondrial complex I, sequence (P25708 21-464): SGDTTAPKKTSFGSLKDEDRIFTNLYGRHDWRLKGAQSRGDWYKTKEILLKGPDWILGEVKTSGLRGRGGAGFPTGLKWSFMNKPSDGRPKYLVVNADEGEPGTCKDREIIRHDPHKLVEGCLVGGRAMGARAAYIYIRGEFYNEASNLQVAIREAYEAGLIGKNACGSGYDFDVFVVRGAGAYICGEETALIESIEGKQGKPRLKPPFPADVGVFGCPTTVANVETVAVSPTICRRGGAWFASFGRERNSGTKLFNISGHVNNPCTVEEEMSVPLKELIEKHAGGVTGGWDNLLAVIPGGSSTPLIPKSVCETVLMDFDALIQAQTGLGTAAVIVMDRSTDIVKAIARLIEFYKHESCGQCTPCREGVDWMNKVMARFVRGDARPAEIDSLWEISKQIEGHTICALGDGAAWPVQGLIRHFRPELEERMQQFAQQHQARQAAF
bovine heart mitochondrial complex I, sequence (P42026 38-216): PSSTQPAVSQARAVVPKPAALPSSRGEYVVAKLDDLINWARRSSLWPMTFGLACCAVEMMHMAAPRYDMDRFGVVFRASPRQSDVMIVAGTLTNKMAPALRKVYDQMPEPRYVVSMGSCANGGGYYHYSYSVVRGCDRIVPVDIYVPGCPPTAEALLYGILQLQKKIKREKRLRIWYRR
bovine heart mitochondrial complex I, sequence (P17694 34-463): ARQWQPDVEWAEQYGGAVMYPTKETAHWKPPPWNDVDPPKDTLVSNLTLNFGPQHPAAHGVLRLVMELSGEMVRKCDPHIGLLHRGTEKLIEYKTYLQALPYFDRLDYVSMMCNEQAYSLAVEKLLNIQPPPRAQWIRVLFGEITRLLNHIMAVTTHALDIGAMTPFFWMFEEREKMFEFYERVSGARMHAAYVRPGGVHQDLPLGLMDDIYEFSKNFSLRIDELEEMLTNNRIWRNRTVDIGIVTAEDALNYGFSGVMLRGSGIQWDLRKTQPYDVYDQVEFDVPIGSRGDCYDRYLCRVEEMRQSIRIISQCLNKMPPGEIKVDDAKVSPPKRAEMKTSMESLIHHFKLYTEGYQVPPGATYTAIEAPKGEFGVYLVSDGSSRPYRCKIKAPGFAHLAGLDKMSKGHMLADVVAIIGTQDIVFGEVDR
bovine heart mitochondrial complex I, sequence (P15690 24-727, further chain): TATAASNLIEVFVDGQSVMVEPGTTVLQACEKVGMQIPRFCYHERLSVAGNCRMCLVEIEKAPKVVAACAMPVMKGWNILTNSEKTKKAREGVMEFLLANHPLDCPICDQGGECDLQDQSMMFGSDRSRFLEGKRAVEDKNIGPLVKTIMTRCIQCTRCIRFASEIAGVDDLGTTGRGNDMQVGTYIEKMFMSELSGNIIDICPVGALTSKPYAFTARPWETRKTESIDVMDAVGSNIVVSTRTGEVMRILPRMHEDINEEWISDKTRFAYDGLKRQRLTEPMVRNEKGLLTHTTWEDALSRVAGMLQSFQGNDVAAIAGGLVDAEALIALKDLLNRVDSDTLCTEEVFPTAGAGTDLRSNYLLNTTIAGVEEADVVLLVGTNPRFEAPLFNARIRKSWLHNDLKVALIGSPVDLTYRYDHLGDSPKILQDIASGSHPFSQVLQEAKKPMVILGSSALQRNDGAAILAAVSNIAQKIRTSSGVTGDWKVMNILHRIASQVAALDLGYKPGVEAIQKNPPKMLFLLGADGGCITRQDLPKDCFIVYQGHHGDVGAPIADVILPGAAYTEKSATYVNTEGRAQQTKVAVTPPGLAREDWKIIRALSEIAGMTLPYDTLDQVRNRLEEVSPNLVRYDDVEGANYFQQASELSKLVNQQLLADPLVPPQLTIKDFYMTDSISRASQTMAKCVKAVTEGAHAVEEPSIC
bovine heart mitochondrial complex I, sequence (P03887 whole entry): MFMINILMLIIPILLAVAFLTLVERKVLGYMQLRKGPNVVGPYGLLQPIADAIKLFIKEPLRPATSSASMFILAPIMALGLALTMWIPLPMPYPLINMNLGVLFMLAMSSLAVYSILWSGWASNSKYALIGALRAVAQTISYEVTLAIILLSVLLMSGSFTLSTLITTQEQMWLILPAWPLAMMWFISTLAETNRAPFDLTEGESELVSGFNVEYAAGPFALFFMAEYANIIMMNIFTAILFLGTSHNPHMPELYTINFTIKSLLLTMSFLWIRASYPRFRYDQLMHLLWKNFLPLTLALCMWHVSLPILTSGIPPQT
bovine heart mitochondrial complex I, sequence (P42028 37-212, further chain): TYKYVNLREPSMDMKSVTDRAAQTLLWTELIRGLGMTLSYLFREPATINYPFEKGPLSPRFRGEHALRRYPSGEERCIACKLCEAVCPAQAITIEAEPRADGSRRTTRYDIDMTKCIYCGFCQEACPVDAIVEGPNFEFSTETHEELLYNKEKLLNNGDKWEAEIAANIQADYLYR

Molecule `CCCCCCCCCCCCCC1=C(O)C(=O)C=C(NCCCCCC)C1=O` [Compound 19, 5-(hexylamino)-2-hydroxy-3-tridecylcyclohexa-2,5-diene-1,4-dione] has an IC50 ([1]; read-out: Complex I inhibition IC50; submitochondrial particles, 30° C.) of 20 ± 1.7 µM, an Emax ([1]; read-out: Complex I inhibition Imax) of 77 ± 6.2% and an inhibition at 1 µM (FRDA lymphocytes) of 2 ± 0.3%. The inhibition at 5 µM (FRDA lymphocytes; 5 μM) was 27 ± 4.5%, the inhibition at 10 µM (FRDA lymphocytes; 10 μM) was 38% and the viability at 0.1 µM [2] was 18 ± 2.1%. It also gave a viability at 0.5 µM [2] of 22 ± 2.6%, a viability at 2.5 µM [2] of 43 ± 4.4% and a viability at 5 µM ([2]; 5 μM) of 65 ± 5.2%. The melting point was 70 °C (dec.), the “NADH oxidase activity (Complex I, III, IV) %” value ([3]; 1 μM) was 67 ± 6.0% and the “NADH oxidase activity (Complex I, III, IV) %” value ([3]; 5 μM) was 39 ± 1.0%.

In the case of `C=CCCCCCCCCCC1=C(O)C(=O)C=C(OC)C1=O`, the melting point is reported as 89 to 90 °C.

In the case of `CCCCCCCCCCCCCC1=C(NCCCC(=O)OC(C)(C)C)C(=O)C(C)=C(NCCCC(=O)OC(C)(C)C)C1=O` [Compound 44, 2,5-bis(tert-butyl 4-aminobutanoate)-3-methyl-6-tridecylcyclohexa-2,5-diene-1,4-dione], the “Scavenging activity (%), suppression of lipid peroxidation” value (FRDA lymphocytes; 5 μM) is reported as 8 ± 3%, the “Scavenging activity (%), suppression of lipid peroxidation” value (FRDA lymphocytes; 10 μM) is reported as 13 ± 3^ % and the “Scavenging activity (%), suppression of ROS production” value (CEM leukemia cells) is reported as 0%. For the same molecule, the “Cytoprotection (cell viability, % of untreated control)” value ([2]; 1 μM) was 15 ± 2%, the “Cytoprotection (cell viability, % of untreated control)” value ([2]; 5 μM) was 98 ± 6^ % and the “NADH oxidase activity (Complex I, III, IV) %” value ([3]; 1 μM) was 95 ± 2^ %. For the same molecule, the “NADH oxidase activity (Complex I, III, IV) %” value ([3]; 5 μM) was 92 ± 3^ % and the “NADH oxidase activity (Complex I, III, IV) %” value ([3]; 10 μM) was 84 ± 3%.

With `CCCCCCCCCCCCCC1=C(O)C(=O)C=C(NCCCC(=O)OC(C)(C)C)C1=O` [Compound 6, tert-butyl 4-(4-hydroxy-3,6-dioxo-5-tridecylcyclohexa-1,4-dienylamino)butanoate] the IC50 [1, 4] was 10 ± 0.6 µM, the Emax [1, 5] was 64 ± 13% and the inhibition at 5 µM (FRDA lymphocytes; 5 μM) was 26 ± 6.7%. The inhibition at 10 µM (FRDA lymphocytes; 10 μM) was 37 ± 1.4%, the viability at 5 µM ([2]; 5 μM) was 50% and the melting point was 96 to 97 °C.

`C=CCCCCCCCCCC1=C(OC)C(=O)C=C(OC)C1=O` gave a melting point of 30 to 31 °C.

`COC1=C2CCCCCCCCCC=CCCCCNC(=CC1=O)C2=O` [Compound 39] gave a melting point of 82 to 84 °C.

Work on `CCCCCCCCCCCCCC1=C(OC)C(=O)C=C(NCCCCCC)C1=O` [Compound 20, 5-(hexylamino)-2-methoxy-3-tridecylcyclohexa-2,5-diene-1,4-dione] yielded an IC50 [1, 4] of 482 ± 24 µM, an Emax [1, 5] greater than 85% and an inhibition at 1 µM (FRDA lymphocytes) of 14 ± 1.3%. For the same molecule, the inhibition at 5 µM (FRDA lymphocytes; 5 μM) was 61 ± 7.5%, the inhibition at 10 µM (FRDA lymphocytes; 10 μM) was 70% and the viability at 0.1 µM [2] was 20 ± 3.2%. It also gave a viability at 0.5 µM [2] of 50 ± 5.2%, a viability at 2.5 µM [2] of 66 ± 6.3% and a viability at 5 µM ([2]; 5 μM) of 80 ± 4%. The melting point was 110 °C (dec.), the “NADH oxidase activity (Complex I, III, IV) %” value ([3]; 1 μM) was 74 ± 16% and the “NADH oxidase activity (Complex I, III, IV) %” value ([3]; 5 μM) was 47 ± 3.0%.

In the case of `CCCCCCCCCCCCCC1=C(NCCCC(=O)OCCCC)C(=O)C(C)=C(NCCCC(=O)OCCCC)C1=O` [Compound 47, 2,5-bis(butyl 4-aminobutanoate)-3-methyl-6-tridecylcyclohexa-2,5-diene-1,4-dione], the “Scavenging activity (%), suppression of lipid peroxidation” value (FRDA lymphocytes; 5 μM) is reported as 7 ± 1%, the “Scavenging activity (%), suppression of lipid peroxidation” value (FRDA lymphocytes; 10 μM) is reported as 19 ± 2^ % and the “Scavenging activity (%), suppression of ROS production” value (CEM leukemia cells) is reported as 25 ± 11%. For the same molecule, the “Cytoprotection (cell viability, % of untreated control)” value ([2]; 1 μM) was 9 ± 2%, the “Cytoprotection (cell viability, % of untreated control)” value ([2]; 5 μM) was 17 ± 3^ % and the “NADH oxidase activity (Complex I, III, IV) %” value ([3]; 1 μM) was 77 ± 1^ %. For the same molecule, the “NADH oxidase activity (Complex I, III, IV) %” value ([3]; 5 μM) was 68 ± 1^ % and the “NADH oxidase activity (Complex I, III, IV) %” value ([3]; 10 μM) was 69 ± 2%.
